Reference: patent US9708286B2, “Ingenol-3-acylates III and ingenol-3-carbamates” (LEO Laboratories Limited, priority 2010, dated 2017)
Read-outs that look alike come from different tables or passages of the source.

How the values were obtained:
Format in all cases: cell-based
[1] = tested on: PMN's (polymorphonuclear leukocytes); test: Neutrophil oxidative burst; settings: Leukocyte, 40 min, normalized to 5×10^−7 M PEP0005
Outline: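 Human buffy-coat neutrophils (2.5×10^5/well) in HBSS with 0.1% BSA, 5 mM glucose treated with compound premixed with 10 μM hydroethidine for 40 min at RT; fluorescence read at 485/579 nm. Normalized to 5×10^−7 M PEP0005; Rel EC50 is midway between fitted top and bottom, Abs EC50 gives 50% of PEP0005 maximum.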

HeLa cells = test: Necrosis assay; settings: Homo sapiens, 0.5 h, read-out: HeLa necrosis EC50 range
Outline: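 HeLa cells treated with compound at 10 μM to 400 μM (final) for 30 min at 37° C., viability then measured by PrestoBlue fluorescence (ex 535/em 630 nm). Normalized to 1% DMSO and 400 μM ingenol mebutate controls; AbsEC50 from four-parameter sigmoidal fit.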

[2] = tested on: Primary human epidermal keratinocytes, HeKa; test: HeKa cytokine release (IL-8); settings: Homo sapiens, read-out: HeKa cytokine release (IL-8) Rel EC50 range
Outline: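 Seeded cells exposed to compound dilutions for 6 h at 37° C; IL-8 in supernatant quantified by MSD sandwich electrochemiluminescence immunoassay. Effects normalized to positive control (1.5×10^−7 M PEP0005), four-parameter sigmoidal fit; Rel EC50 is concentration midway between fitted top and bottom.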

[3] = read-out: Neutrophil oxidative burst Rel EC50 range, PMN from buffy coats, 40 min at RT, hydroethidine fluorescence

| SMILES | EC50 [1, 3] [µM] | EC50 (HeLa cells; HeLa) [µM] | EC50 ([2]; HEKa, 6 h) [µM] | EC50 ([1]; PMN from buffy coats, 40 min at RT, hydroethidine fluorescence, read-out: Neutrophil oxidative burst Rel EC50 range) [µM] | EC50 (HeLa cells; HeLa cells, 30 min at 37° C., PrestoBlue, AbsEC50, normalized to 400 μM ingenol mebutate) [µM] | EC50 ([2]; HeKa cells, 6 h at 37° C., IL-8 by MSD assay, normalized to 1.5×10^−7 M PEP0005) [µM] |
| --- | --- | --- | --- | --- | --- | --- |
| CC1=C[C@]23C(=O)[C@@H](C=C(CO)[C@@H](O)[C@]2(O)[C@H]1OC(=O)c1[nH]ccc1C)[C@H]1[C@@H](C[C@H]3C)C1(C)C [Compound 584, Ingenol 3-(3-methyl-1H-pyrrole-2-carboxylate)] | < 0.02 | 150 to 350 | < 0.02 |  |  |  |
| CC1=C[C@]23C(=O)[C@@H](C=C(CO)[C@@H](O)[C@]2(O)[C@H]1OC(=O)c1cccn1C1CC1)[C@H]1[C@@H](C[C@H]3C)C1(C)C [Compound 585, Ingenol 3-(1-cyclopropylpyrrole-2-carboxylate)] | < 0.02 | < 150 | < 0.02 |  |  |  |
| CCn1cc(C)c(C(=O)O[C@H]2C(C)=C[C@]34C(=O)[C@@H](C=C(CO)[C@@H](O)[C@]23O)[C@H]2[C@@H](C[C@H]4C)C2(C)C)c1C [Compound 586, Ingenol 3-(1-ethyl-2,4-dimethyl-pyrrole-3-carboxylate)] | < 0.02 | < 150 | < 0.02 |  |  |  |
| C=CCn1cc(C)c(C(=O)O[C@H]2C(C)=C[C@]34C(=O)[C@@H](C=C(CO)[C@@H](O)[C@]23O)[C@H]2[C@@H](C[C@H]4C)C2(C)C)c1C [Compound 587, Ingenol 3-(1-allyl-2,4-dimethyl-pyrrole-3-carboxylate)] | < 0.02 | < 150 | < 0.02 |  |  |  |
| CC1=C[C@]23C(=O)[C@@H](C=C(CO)[C@@H](O)[C@]2(O)[C@H]1OC(=O)c1c(C)cn(CC2CC2)c1C)[C@H]1[C@@H](C[C@H]3C)C1(C)C [Compound 588, Ingenol 3-(1-(cyclopropylmethyl)-2,4-dimethyl-pyrrole-3-carboxylate)] | < 0.02 | < 150 | < 0.02 |  |  |  |
| COCCn1cc(C)c(C(=O)O[C@H]2C(C)=C[C@]34C(=O)[C@@H](C=C(CO)[C@@H](O)[C@]23O)[C@H]2[C@@H](C[C@H]4C)C2(C)C)c1C [Compound 589, Ingenol 3-(1-(2-methoxyethyl)-2,4-dimethyl-pyrrole-3-carboxylate)] | 0.02 to 0.1 | < 150 | < 0.02 |  |  |  |
| CC1=C[C@]23C(=O)[C@@H](C=C(CO)[C@@H](O)[C@]2(O)[C@H]1OC(=O)N(C)c1ccccc1)[C@H]1[C@@H](C[C@H]3C)C1(C)C [Compound 705, Ingenol 3-(N-methyl-N-phenyl-carbamate)] | < 0.02 | 150 to 350 | < 0.02 |  |  |  |
| CCN(CC)C(=O)O[C@H]1C(C)=C[C@]23C(=O)[C@@H](C=C(CO)[C@@H](O)[C@]12O)[C@H]1[C@@H](C[C@H]3C)C1(C)C [Compound 706, Ingenol 3-(N,N-diethyl-carbamate)] | < 0.02 | > 350 | 0.02 to 0.1 |  |  |  |
| CC1=C[C@]23C(=O)[C@@H](C=C(CO)[C@@H](O)[C@]2(O)[C@H]1OC(=O)N(C)C1CCCCC1)[C@H]1[C@@H](C[C@H]3C)C1(C)C [Compound 709, Ingenol 3-(N-cyclohexyl-N-methyl-carbamate)] | < 0.02 | 150 to 350 | < 0.02 |  |  |  |
| CC1=C[C@]23C(=O)[C@@H](C=C(CO)[C@@H](O)[C@]2(O)[C@H]1OC(=O)N1CCCC(C)(C)C1)[C@H]1[C@@H](C[C@H]3C)C1(C)C [Compound 713, Ingenol 3-(3,3-dimethyl-piperidine-1-carboxylate)] | 0.02 to 0.1 | 150 to 350 | < 0.02 |  |  |  |
| CC1=C[C@]23C(=O)[C@@H](C=C(CO)[C@@H](O)[C@]2(O)[C@H]1OC(=O)N(C)C1CCCc2ccccc21)[C@H]1[C@@H](C[C@H]3C)C1(C)C (stereo partly drawn) [Compound 714, Ingenol 3-(N-Methyl-N-tetralin-1-yl-carbamate)] | > 0.1 | < 150 | < 0.02 |  |  |  |
| CC1=C[C@]23C(=O)[C@@H](C=C(CO)[C@@H](O)[C@]2(O)[C@H]1OC(=O)N(C)[C@@H](C)c1ccccc1)[C@H]1[C@@H](C[C@H]3C)C1(C)C [Compound 716, Ingenol 3-(N-methyl-N—((S)-1-phenethyl)-carbamate)] | 0.02 to 0.1 | < 150 | < 0.02 |  |  |  |
| CC1=C[C@]23C(=O)[C@@H](C=C(CO)[C@@H](O)[C@]2(O)[C@H]1OC(=O)N(C)CC1CC1)[C@H]1[C@@H](C[C@H]3C)C1(C)C [Compound 717, Ingenol 3-(N-methyl-N-(cyclopropylmethyl)-carbamate)] | < 0.02 | > 350 | < 0.02 |  |  |  |
| CC1=C[C@]23C(=O)[C@@H](C=C(CO)[C@@H](O)[C@]2(O)[C@H]1OC(=O)N(C)c1cccc(F)c1)[C@H]1[C@@H](C[C@H]3C)C1(C)C [Compound 718, Ingenol 3-(N-(3-fluoro-phenyl)-N-methyl-carbamate)] | < 0.02 | 150 to 350 | < 0.02 |  |  |  |
| CC1=C[C@]23C(=O)[C@@H](C=C(CO)[C@@H](O)[C@]2(O)[C@H]1OC(=O)N(C)c1cc(C)n(C)n1)[C@H]1[C@@H](C[C@H]3C)C1(C)C [Compound 721, Ingenol 3-(N-(1,5-dimethylpyrazol-3-yl)-N-methyl-carbamate)] | 0.02 to 0.1 | > 350 | 0.02 to 0.1 |  |  |  |
| CC1=C[C@]23C(=O)[C@@H](C=C(CO)[C@@H](O)[C@]2(O)[C@H]1OC(=O)N(C)C1CCCC1)[C@H]1[C@@H](C[C@H]3C)C1(C)C [Compound 722, Ingenol 3-(N-cyclopentyl-N-methyl-carbamate)] | < 0.02 | > 350 | 0.02 to 0.1 |  |  |  |
| CC1=C[C@]23C(=O)[C@@H](C=C(CO)[C@@H](O)[C@]2(O)[C@H]1OC(=O)N(C)C1CC1)[C@H]1[C@@H](C[C@H]3C)C1(C)C [Compound 723, Ingenol 3-(N-cyclopropyl-N-methyl-carbamate)] | < 0.02 | > 350 | 0.02 to 0.1 |  |  |  |
| CC1=C[C@]23C(=O)[C@@H](C=C(CO)[C@@H](O)[C@]2(O)[C@H]1OC(=O)N1CCCc2ccccc21)[C@H]1[C@@H](C[C@H]3C)C1(C)C [Compound 726, Ingenol 3-(3,4-dihydro-2H-quinoline-1-carboxylate)] | 0.02 to 0.1 | < 150 | < 0.02 |  |  |  |
| CC1=C[C@]23C(=O)[C@@H](C=C(CO)[C@@H](O)[C@]2(O)[C@H]1OC(=O)N1CCc2ccccc21)[C@H]1[C@@H](C[C@H]3C)C1(C)C [Compound 727, Ingenol 3-(indoline-1-carboxylate)] | < 0.02 | < 150 | < 0.02 |  |  |  |
| CC1=C[C@]23C(=O)[C@@H](C=C(CO)[C@@H](O)[C@]2(O)[C@H]1OC(=O)N(C)c1ccc(Cl)cc1)[C@H]1[C@@H](C[C@H]3C)C1(C)C [Compound 729, Ingenol 3-(N-(4-chloro-phenyl)-N-methyl-carbamate)] | < 0.02 | 150 to 350 | < 0.02 |  |  |  |
| CC1=C[C@]23C(=O)[C@@H](C=C(CO)[C@@H](O)[C@]2(O)[C@H]1OC(=O)N(C)c1ccccc1C)[C@H]1[C@@H](C[C@H]3C)C1(C)C [Compound 732, Ingenol 3-(N-methyl-N-(2-methyl-phenyl)-carbamate)] | < 0.02 | 150 to 350 | < 0.02 |  |  |  |
| CCN(C(=O)O[C@H]1C(C)=C[C@]23C(=O)C(C=C(CO)[C@@H](O)[C@]12O)[C@H]1[C@@H](C[C@H]3C)C1(C)C)c1ccccc1 [Compound 734, Ingenol 3-(N-ethyl-N-phenyl-carbamate)] | 0.02 to 0.1 | 150 to 350 | < 0.02 |  |  |  |
| CC1=C[C@]23C(=O)[C@@H](C=C(CO)[C@@H](O)[C@]2(O)[C@H]1OC(=O)N1CC2CCC(CC2)C1)[C@H]1[C@@H](C[C@H]3C)C1(C)C [Compound 736, Ingenol 3-(3-azabicyclo[3.2.2]nonane-3-carboxylate)] |  |  |  | < 0.02 | 150 to 350 | < 0.02 |
| CC1=C[C@]23C(=O)[C@@H](C=C(CO)[C@@H](O)[C@]2(O)[C@H]1OC(=O)N1CCOc2ccccc21)[C@H]1[C@@H](C[C@H]3C)C1(C)C [Compound 737, Ingenol 3-(2,3-dihydro-1,4-benzoxazine-4-carboxylate)] | < 0.02 | < 150 | < 0.02 |  |  |  |
| CC1=C[C@]23C(=O)[C@@H](C=C(CO)[C@@H](O)[C@]2(O)[C@H]1OC(=O)N(C)c1ccccc1F)[C@H]1[C@@H](C[C@H]3C)C1(C)C [Compound 738, Ingenol 3-(N-(2-fluoro-phenyl)-N-methyl-carbamate)] | < 0.02 | 150 to 350 | 0.02 to 0.1 |  |  |  |
